The source of these data is ChEMBL document CHEMBL4715760, “Balancing potency, metabolic stability and permeability in pyrrolopyrimidine-based EGFR inhibitors” (Eur J Med Chem, 2016).

In assay [1] the target is Ephrin type-A receptor 2 (Homo sapiens) (UniProt P29317). The experiment in a line: Inhibition of recombinant human GST-tagged EPHA2 cytoplasmic domain expressed in baculovirus expression system at 500 nM using Tyr 01 peptide as substrate incubated for 1 hr in presence of ATP at its Km concentration by Z'-LYTE assay relative to control.
Assay [2] deals with BaF3. The experiment in a line: Antiproliferative activity against mouse Ba/F3 cells expressing EGFR-L858R mutant assessed as inhibition of cell growth incubated for 48 hrs by XTT assay. The format is functional, cell-based. The settings on record: BaF3, 48 h. (Formazan colour is commonly taken as a measure of viable cells.)
Assay [3] deals with Platelet-derived growth factor receptor beta (Homo sapiens) (UniProt P09619). The experiment in a line: Inhibition of recombinant human His-tagged PDGFRbeta cytoplasmic domain expressed in baculovirus expression system at 500 nM using Tyr 04 as substrate incubated for 1 hr in presence of ATP at its Km concentration by Z'-LYTE assay relative to control.
Assay [4] deals with Serine/threonine-protein kinase PLK1 (Homo sapiens) (UniProt P53350). The experiment in a line: Inhibition of recombinant full length human His-tagged PLK1 expressed in baculovirus expression system at 500 nM using Ser/Thr 16 as substrate incubated for 1 hr in presence of ATP at its Km concentration by Z'-LYTE assay relative to control.
Assay [5] deals with Protein kinase C beta type (Homo sapiens) (UniProt P05771). The experiment in a line: Inhibition of human full length GST tagged PRKCB1 expressed in insect cells at 500 nM using Ser/Thr 07 as substrate incubated for 1 hr in presence of ATP at its Km concentration by Z'-LYTE assay relative to control.
The target of assay [6] is Tyrosine-protein kinase Blk (Homo sapiens) (UniProt P51451). The experiment in a line: Inhibition of recombinant human His-tagged full length BLK expressed in baculovirus expression system at 500 nM using Tyr 01 peptide as substrate incubated for 1 hr in presence of ATP at its Km concentration by Z'-LYTE assay relative to control.
Assay [7] has as its system A-431. The experiment in a line: Antiproliferative activity against human A431 cells. The format is functional, cell-based.
The target in assay [8] is Serine/threonine-protein kinase B-raf (Homo sapiens) (UniProt P15056). Description: Inhibition of recombinant human GST-tagged full length BRAF expressed in baculovirus expression system at 500 nM using Ser/Thr 03 peptide as substrate incubated for 1 hr in presence of 100 uM ATP by Z'-LYTE assay relative to control.
In assay [9] the target is cAMP-dependent protein kinase catalytic subunit alpha (Homo sapiens) (UniProt P17612). The experiment in a line: Inhibition of recombinant human His-tagged PRKACA (1 to 351 residues) expressed in Escherichia coli expression system at 500 nM using Ser/Thr 01 as substrate incubated for 1 hr in presence of ATP at its Km concentration by Z'-LYTE assay relative to control.
Assay [10] has as its target Receptor tyrosine-protein kinase erbB-4 (Homo sapiens) (UniProt Q15303). The experiment in a line: Inhibition of recombinant human N-terminal GST-tagged ERBB4 catalytic domain (708 to 993 residues) expressed in baculovirus expression system at 500 nM using Tyr 01 peptide as substrate incubated for 1 hr in presence of ATP at its Km concentration by Z'-LYTE assay relative to control.

For assay [11], the target named is Tyrosine-protein kinase HCK (Homo sapiens) (UniProt P08631). Description: Inhibition of recombinant full length N-terminal GST-tagged human HCK expressed in baculovirus expression system at 500 nM using Tyr 02 as substrate incubated for 1 hr in presence of ATP at its Km concentration by Z'-LYTE assay relative to control.
Assay [12] deals with Tyrosine-protein kinase Fgr (Homo sapiens) (UniProt P09769). The experiment in a line: Inhibition of recombinant full length human C-terminal His-tagged FGR expressed in baculovirus expression system at 500 nM using Tyr 02 peptide as substrate incubated for 1 hr in presence of ATP at its Km concentration by Z'-LYTE assay relative to control.
For assay [13], the target named is Vascular endothelial growth factor receptor 2 (Homo sapiens) (UniProt P35968). The experiment in a line: Inhibition of recombinant human His-tagged KDR (789 to 1356 residues) expressed in baculovirus expression system at 500 nM using Tyr 01 as substrate incubated for 1 hr in presence of ATP at its Km concentration by Z'-LYTE assay relative to control.
The target in assay [14] is Tyrosine-protein kinase Lyn (Homo sapiens) (UniProt P07948). The experiment in a line: Inhibition of recombinant full length human His-tagged LYN-B expressed in baculovirus expression system at 500 nM using Tyr 02 as substrate incubated for 1 hr in presence of ATP at its Km concentration by Z'-LYTE assay relative to contro.
Assay [15] has the same target. Description: Inhibition of recombinant full length human GST-tagged LYN-A expressed in insect cells at 500 nM using Tyr 02 as substrate incubated for 1 hr in presence of ATP at its Km concentration by Z'-LYTE assay relative to control.
For assay [16], the target named is Proto-oncogene tyrosine-protein kinase Src (Homo sapiens) (UniProt P12931). The experiment in a line: Inhibition of recombinant human His-tagged full length SRC expressed in baculovirus expression system at 500 nM using Tyr 02 as substrate incubated for 1 hr in presence of ATP at its Km concentration by Z'-LYTE assay relative to control.
Assay [17] addresses Epidermal growth factor receptor (Homo sapiens, UniProt P00533). Conditions: dose 100.0 nM.
Description: Inhibition of human EGFR at 100 nM using poly[Glu:Tyr] (4:1) as substrate in presence of [gamma33P]ATP by radiometric HotSpot assay relative to control
Assay [18] deals with Vascular endothelial growth factor receptor 1 (Homo sapiens) (UniProt P17948). Description: Inhibition of recombinant human GST-tagged FLT1 catalytic domain (781 to 1338 residues) expressed in baculovirus expression system at 500 nM using Tyr 04 peptide as substrate incubated for 1 hr in presence of ATP at its Km concentration by Z'-LYTE assay relative to control.
In assay [19] the target is Tyrosine-protein kinase Yes (Homo sapiens) (UniProt P07947). The experiment in a line: Inhibition of full length recombinant GST-tagged human YES1 expressed in baculovirus expression system at 500 nM using Tyr 02 as substrate incubated for 1 hr in presence of ATP at its Km concentration by Z'-LYTE assay relative to control.
The target of assay [20] is Angiopoietin-1 receptor (Homo sapiens) (UniProt Q02763). Description: Inhibition of recombinant human GST-tagged TEK (817 to 1101 residues) expressed in baculovirus expression system at 500 nM using Tyr 05 as substrate incubated for 1 hr in presence of ATP at its Km concentration by Z'-LYTE assay relative to control.
The target of assay [21] is Tyrosine-protein kinase Lck (Homo sapiens) (UniProt P06239). The settings on record: dose 500.0 nM, time 1.0 hrs.
The target in assay [22] is Dual specificity mitogen-activated protein kinase kinase 1 (Homo sapiens) (UniProt Q02750). Description: Inhibition of recombinant full length human His-tagged MAP2K1 expressed in baculovirus expression system at 500 nM using Ser/Thr 03 as substrate incubated for 1 hr in presence of ATP at its Km concentration by Z'-LYTE assay relative to control.

SMILES strings stand for the structures.

Chain of Proto-oncogene tyrosine-protein kinase Src (Homo sapiens) (P12931 2-536 limits assumed): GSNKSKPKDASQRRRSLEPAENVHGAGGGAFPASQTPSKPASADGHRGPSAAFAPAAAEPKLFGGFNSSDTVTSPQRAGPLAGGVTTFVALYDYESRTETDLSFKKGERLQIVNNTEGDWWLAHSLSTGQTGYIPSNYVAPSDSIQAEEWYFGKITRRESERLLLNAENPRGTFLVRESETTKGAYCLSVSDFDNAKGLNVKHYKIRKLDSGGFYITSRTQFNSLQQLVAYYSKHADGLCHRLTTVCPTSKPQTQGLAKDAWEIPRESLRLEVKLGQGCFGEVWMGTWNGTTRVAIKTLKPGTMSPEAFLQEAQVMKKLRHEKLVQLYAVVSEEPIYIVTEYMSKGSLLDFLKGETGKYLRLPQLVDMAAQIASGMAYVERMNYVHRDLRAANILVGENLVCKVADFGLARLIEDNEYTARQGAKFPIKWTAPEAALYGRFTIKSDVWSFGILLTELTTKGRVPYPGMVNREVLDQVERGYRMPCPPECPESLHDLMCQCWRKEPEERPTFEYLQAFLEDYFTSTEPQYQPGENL
Chain of Receptor tyrosine-protein kinase erbB-4 (Homo sapiens) (Q15303 whole entry, the tested form may be a part): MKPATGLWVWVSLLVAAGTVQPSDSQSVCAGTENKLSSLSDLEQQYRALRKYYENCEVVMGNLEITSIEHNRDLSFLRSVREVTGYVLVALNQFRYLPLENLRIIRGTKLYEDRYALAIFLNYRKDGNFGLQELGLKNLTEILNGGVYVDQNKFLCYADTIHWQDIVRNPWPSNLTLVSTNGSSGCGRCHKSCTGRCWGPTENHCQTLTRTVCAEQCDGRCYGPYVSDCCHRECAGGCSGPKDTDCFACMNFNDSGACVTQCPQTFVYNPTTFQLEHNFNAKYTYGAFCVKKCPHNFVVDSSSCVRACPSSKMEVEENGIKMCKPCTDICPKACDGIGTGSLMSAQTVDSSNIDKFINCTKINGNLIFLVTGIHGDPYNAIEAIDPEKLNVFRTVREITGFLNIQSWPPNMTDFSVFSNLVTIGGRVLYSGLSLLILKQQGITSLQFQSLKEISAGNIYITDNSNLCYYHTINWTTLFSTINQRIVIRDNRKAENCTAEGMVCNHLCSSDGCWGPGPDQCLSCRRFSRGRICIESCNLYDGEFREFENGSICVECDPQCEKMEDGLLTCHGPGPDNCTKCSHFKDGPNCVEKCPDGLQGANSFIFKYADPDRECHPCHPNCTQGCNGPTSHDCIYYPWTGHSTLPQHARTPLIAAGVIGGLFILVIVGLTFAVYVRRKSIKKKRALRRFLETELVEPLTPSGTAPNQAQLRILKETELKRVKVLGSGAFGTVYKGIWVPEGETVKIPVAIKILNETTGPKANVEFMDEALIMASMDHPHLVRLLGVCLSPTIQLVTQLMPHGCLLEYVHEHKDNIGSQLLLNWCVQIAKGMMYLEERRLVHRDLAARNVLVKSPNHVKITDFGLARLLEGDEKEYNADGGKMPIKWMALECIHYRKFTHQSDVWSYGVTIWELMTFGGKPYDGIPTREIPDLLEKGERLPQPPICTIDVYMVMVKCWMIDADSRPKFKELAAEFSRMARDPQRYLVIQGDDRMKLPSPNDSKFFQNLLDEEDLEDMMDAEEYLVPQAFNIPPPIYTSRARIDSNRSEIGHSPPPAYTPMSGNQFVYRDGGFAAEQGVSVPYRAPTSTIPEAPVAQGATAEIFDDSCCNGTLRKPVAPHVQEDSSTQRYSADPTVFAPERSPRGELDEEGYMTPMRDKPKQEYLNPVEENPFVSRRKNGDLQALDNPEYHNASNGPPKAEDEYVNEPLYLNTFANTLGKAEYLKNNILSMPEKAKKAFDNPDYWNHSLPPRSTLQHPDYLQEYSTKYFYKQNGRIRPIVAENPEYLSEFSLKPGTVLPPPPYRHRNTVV
Chain of Tyrosine-protein kinase Lyn (Homo sapiens) (P07948 2-512 limits assumed): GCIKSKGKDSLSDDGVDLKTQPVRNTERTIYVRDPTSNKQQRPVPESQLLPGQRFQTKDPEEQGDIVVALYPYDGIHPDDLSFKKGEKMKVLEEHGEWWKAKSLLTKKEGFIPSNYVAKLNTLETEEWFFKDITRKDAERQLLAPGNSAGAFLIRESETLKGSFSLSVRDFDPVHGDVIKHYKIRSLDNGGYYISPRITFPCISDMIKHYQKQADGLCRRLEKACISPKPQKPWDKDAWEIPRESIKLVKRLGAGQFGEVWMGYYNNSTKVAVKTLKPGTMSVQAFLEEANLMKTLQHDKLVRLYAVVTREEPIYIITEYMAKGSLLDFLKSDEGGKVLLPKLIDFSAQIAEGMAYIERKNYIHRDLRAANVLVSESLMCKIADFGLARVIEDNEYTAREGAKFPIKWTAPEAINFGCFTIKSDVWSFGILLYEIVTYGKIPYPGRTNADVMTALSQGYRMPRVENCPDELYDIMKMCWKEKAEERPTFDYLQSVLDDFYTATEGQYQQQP
Chain of Tyrosine-protein kinase Fgr (Homo sapiens) (P09769 2-529 limits assumed): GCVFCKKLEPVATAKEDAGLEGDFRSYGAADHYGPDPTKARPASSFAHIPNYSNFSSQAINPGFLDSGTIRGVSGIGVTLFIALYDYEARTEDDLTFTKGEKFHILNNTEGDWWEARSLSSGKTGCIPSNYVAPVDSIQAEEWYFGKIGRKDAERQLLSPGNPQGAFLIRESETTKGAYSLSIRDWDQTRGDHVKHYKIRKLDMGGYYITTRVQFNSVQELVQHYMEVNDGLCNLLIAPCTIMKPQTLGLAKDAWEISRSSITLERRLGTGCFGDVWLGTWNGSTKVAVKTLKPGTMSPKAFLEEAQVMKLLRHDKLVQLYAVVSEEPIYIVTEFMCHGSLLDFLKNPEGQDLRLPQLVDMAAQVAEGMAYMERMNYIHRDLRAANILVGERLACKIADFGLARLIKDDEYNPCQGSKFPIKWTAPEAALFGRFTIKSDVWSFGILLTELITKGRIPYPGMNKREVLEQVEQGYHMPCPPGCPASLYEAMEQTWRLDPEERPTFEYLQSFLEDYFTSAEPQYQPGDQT
Chain of Angiopoietin-1 receptor (Homo sapiens) (Q02763 whole entry, the tested form may be a part): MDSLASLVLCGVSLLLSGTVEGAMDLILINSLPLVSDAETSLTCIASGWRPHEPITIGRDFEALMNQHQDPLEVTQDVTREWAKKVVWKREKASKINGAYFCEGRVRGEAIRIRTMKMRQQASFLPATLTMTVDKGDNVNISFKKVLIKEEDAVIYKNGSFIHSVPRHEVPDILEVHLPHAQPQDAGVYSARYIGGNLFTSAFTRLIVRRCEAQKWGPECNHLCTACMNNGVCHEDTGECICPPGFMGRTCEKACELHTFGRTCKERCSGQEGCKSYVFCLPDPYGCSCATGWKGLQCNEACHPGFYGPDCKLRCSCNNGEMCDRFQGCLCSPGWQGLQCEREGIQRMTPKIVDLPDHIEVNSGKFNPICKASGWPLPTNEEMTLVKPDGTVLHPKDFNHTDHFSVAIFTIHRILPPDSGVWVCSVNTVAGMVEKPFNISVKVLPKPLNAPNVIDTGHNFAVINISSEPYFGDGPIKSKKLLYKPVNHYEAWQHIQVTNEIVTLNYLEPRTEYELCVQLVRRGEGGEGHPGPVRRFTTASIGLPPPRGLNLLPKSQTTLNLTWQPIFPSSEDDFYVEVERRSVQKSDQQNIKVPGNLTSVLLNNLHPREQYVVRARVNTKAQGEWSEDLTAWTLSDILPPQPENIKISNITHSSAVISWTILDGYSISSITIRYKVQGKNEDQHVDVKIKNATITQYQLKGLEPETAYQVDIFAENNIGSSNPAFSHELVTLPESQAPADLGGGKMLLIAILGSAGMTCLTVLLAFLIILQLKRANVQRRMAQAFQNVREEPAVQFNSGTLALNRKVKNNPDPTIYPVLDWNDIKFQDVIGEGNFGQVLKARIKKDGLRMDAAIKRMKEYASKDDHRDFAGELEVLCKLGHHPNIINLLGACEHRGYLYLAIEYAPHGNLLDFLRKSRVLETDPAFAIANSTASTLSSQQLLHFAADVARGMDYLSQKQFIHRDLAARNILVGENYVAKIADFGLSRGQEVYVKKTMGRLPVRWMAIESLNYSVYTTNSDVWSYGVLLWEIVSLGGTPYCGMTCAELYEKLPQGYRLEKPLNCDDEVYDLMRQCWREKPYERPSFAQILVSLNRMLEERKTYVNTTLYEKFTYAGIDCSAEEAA
Chain of Serine/threonine-protein kinase B-raf (Homo sapiens) (P15056 whole entry, the tested form may be a part): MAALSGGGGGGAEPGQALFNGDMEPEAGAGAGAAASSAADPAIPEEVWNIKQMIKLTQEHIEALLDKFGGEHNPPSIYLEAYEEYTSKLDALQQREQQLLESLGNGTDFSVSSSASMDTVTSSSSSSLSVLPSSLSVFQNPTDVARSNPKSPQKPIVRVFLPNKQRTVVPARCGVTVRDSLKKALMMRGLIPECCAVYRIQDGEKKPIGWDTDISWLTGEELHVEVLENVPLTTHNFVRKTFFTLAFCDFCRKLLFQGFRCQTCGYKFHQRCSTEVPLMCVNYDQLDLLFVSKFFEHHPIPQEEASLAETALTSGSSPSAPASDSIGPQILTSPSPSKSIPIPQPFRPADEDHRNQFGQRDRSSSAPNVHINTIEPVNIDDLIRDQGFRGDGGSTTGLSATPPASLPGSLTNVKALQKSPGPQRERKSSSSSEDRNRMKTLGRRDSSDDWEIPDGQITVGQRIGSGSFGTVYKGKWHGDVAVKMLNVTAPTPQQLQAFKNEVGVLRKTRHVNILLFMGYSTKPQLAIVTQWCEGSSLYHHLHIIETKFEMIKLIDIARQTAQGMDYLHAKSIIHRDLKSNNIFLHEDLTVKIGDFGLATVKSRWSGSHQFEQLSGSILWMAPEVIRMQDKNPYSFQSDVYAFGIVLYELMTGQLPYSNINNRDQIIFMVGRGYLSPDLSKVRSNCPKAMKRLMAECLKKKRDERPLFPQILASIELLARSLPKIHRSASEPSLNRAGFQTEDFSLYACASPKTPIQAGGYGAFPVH

Take `C#Cc1cccc(Nc2ncnc3cc(OCCOC)c(OCCOC)cc23)c1` [ERLOTINIB]: the inhibition (in general, the relative decrease from the control value, in per cent) is 11% in [1]; -5% in assay [3]; -9% in assay [4]; -2% in assay [5]; 38% in assay [6]; 3% in assay [8]. In [9], the inhibition is -10%. In addition, the IC50 (as a rule, the point on the concentration scale where inhibition reaches its midpoint) in [2] is 87 nM; in [7], 400 nM.

Consider `COc1ccccc1-c1cc2c(N[C@H](CO)c3ccccc3)ncnc2[nH]1`, for which the inhibition in [1] turned out to be 7%; in assay [10], 79%; in [11], 30%; in [12], 74%; in assay [13] it was 15%; in assay [14], 64%. In addition, the inhibition in [3] turned out to be 0%; in assay [15] it was 52%; in assay [16], 59%; in [17] (tested as the 2H-labelled form) it was 99%; in [18], 5%; in assay [19] it was 68%. Also, the inhibition in [5] is 8%; in assay [6], 29%; in [20] it was 0%; in assay [8], 4%; in assay [21], 17%; in assay [22], -4%. For the same molecule, in assay [9], the inhibition is -1%. Further, in [2], the IC50 was 134 nM.

`CCOc1ccccc1-c1cc2c(N[C@H](CO)c3ccccc3)ncnc2[nH]1`: the inhibition in assay [1] came out at 21%; in [10], 62%; in assay [11], 27%; in assay [12] it was 73%; in assay [13] it was 9%; in [14] it was 44%. In addition, the inhibition in assay [3] was 8%; in assay [15], 14%; in assay [16], 40%; in [4], -3%; in assay [17], 98%; in assay [18], 3%. The inhibition was 56% in assay [19]; 15% in assay [5]; 14% in [6]; 7% in [8]; 26% in assay [21]; 10% in assay [22]. The inhibition in [9] is 6%. Also, the half-inhibitory concentration (IC50) in [2] amounted to 98 nM; in assay [7] it was 9200 nM.

Regarding `CN(C)CCNCc1ccc(-c2cc3c(N[C@H](CO)c4ccccc4)ncnc3[nH]2)cc1F`, the inhibition came out at 54% in assay [1]; 74% in [10]; 36% in [11]; 83% in [12]; 53% in assay [13]; 68% in assay [14]. In addition, the inhibition in [3] was 10%; in assay [15] it was 13%; in assay [16], 76%; in assay [4] it was -3%; in assay [17] it was 99%; in assay [18], 12%. Also, the inhibition is 81% in [19]; 17% in assay [5]; 22% in [6]; -4% in assay [8]; 81% in assay [21]; 13% in [22]. In addition, the inhibition in assay [9] was 4%. Further, the half-inhibitory concentration (IC50) in [2] was 142 nM; in [7], more than 10000 nM.

On to `OC[C@@H](Nc1ncnc2[nH]c(-c3ccccc3)cc12)c1ccccc1`, for which the inhibition in assay [1] came to 16%; in [10], 51%; in assay [11], 29%; in [12], 73%; in assay [13] it was 28%; in assay [14] it was 60%. For the same molecule, the inhibition in [3] was -1%; in assay [15] it was 47%; in [16] it was 59%; in assay [4] it was 1%; in assay [18], 8%; in [19] it was 65%. Besides, the inhibition in [5] was 1%; in [6], 33%; in [20], 1%; in assay [8], -2%; in [21], 13%; in assay [22], -8%. In assay [9], the inhibition came out at 1%. Further, in [7], the IC50 is 300 nM.

Take `OCC[C@@H](Nc1ncnc2[nH]c(-c3ccccc3)cc12)c1ccccc1`: the inhibition turned out to be 23% in [1]; 15% in assay [10]; 31% in [11]; 67% in [12]; 0% in assay [13]; 49% in assay [14]. For the same molecule, the inhibition is 11% in [3]; 16% in [15]; 25% in assay [16]; -5% in assay [4]; 99% in [17]; -4% in [18]. Moreover, the inhibition in assay [19] was 50%; in assay [5] it was 6%; in [6], 17%; in [20] it was -10%; in assay [8], -3%; in [21] it was 29%. In addition, the results for the inhibition in assay [22] and in assay [9] were 5% and 7%, respectively. Besides, the IC50 in assay [2] came out at 75 nM; in assay [7], 800 nM.
